Laboratory results taken from BindingDB's records for patent US20250313563 (The Broad Institute, 2025).
“And” between values parts separate entries of the source, which are not always exact repeats. Equal entries are not always repeated.

How the values were obtained:
[1] = molecular target: Glycogen synthase kinase-3 alpha (Homo sapiens, UniProt P49840); assay: TR-FRET Assay
How it was run: (§1)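 Kinase activity, measured after a 30-minute compound preincubation, was stopped with EDTA and quantified by TR-FRET using a Tb-labelled pSer641 antibody paired with streptavidin-d2.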

[2] = molecular target: Glycogen synthase kinase-3 beta (Homo sapiens, UniProt P49841); assay: TR-FRET Assay
How it was run: as §1

Glycogen synthase kinase-3 beta, sequence (P49841 whole entry): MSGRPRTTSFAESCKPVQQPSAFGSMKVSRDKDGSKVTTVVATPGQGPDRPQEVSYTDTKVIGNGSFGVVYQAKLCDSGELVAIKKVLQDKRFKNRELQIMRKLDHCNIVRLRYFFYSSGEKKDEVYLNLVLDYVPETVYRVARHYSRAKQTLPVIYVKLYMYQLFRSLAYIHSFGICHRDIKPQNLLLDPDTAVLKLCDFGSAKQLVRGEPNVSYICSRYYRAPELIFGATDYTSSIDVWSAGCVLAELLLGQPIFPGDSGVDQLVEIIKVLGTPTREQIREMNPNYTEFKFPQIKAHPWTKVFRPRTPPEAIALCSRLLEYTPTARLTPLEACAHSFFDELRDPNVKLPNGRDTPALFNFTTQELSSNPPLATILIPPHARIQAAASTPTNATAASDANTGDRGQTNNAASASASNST
Glycogen synthase kinase-3 alpha, sequence (P49840 whole entry): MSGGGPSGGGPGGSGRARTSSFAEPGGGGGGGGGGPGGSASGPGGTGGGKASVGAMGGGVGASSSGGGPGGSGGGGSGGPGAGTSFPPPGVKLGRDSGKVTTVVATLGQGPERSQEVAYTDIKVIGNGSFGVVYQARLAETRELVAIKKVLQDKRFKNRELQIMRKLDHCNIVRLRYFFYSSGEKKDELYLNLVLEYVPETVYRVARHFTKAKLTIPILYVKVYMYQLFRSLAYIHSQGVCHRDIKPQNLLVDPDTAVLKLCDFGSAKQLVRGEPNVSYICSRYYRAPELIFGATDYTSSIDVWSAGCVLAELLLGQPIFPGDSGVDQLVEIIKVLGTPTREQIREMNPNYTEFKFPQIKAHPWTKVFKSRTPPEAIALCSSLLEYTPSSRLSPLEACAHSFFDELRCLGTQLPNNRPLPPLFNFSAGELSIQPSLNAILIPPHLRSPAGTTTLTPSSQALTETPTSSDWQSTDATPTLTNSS

Structure (SMILES) | IC50 [1] | IC50 [2]
CCC1(c2cccc(-c3ccnc(C)c3)c2)C2=C(CC(C)(C)NC2=O)NC2N=NC(C)=C21 (stereo unspecified) [US20250313563, Compound 947798] | < 0.1 µM | 0.1 to 1 µM
CC[C@]1(c2cccc(S(=O)(=O)C3CC3)c2)C2=CN=NC2NC2=C1C(=O)N(C)C(C)(C)C2 (stereo partly specified) [US20250313563, Compound 949184] | 1 to 5 µM | > 5 µM
CCC1(c2cccc(C(F)(F)F)c2)C2=CN=NC2NC2=C1C(=O)N(c1cnn(C)c1C)CC2 (stereo unspecified) [US20250313563, Compound 950612] | < 0.1 µM | 1 to 5 µM
CC[C@@]1(c2cccc(C(F)(F)F)c2)C2=CN=NC2NC2=C1C(=O)N(c1cc(C)n(C)n1)CC2 (stereo partly specified) [US20250313563, Compound 951954] | > 5 µM | > 5 µM
CCC1(c2cccc(-c3ccnc(C)c3F)c2)C2=C(CC(C)(C)NC2=O)NC2N=NC(C(F)(F)F)=C21 (stereo unspecified) [US20250313563, Compound 948297] | < 0.1 µM | < 0.1 µM
CC[C@]1(c2cccc(-c3cnn(C)c3C)c2)C2=C(CC(C)(C)NC2=O)NC2N=NC(C)=C21 (stereo partly specified) [US20250313563, Compound 945727] | > 5 µM | > 5 µM
CCC1(c2cccc(Oc3ncccn3)c2)C2=C(CC(C)(C)NC2=O)NC2N=NC(C(F)(F)F)=C21 (stereo unspecified) [US20250313563, Compound 950323] | < 0.1 µM | < 0.1 µM
CC[C@]1(c2ccccc2)C2=CN=NC2NC2=C1C(=O)[C@H](C)C[C@@H]2C (stereo partly specified) [US20250313563, Compound 909216] | 0.1 to 1 µM | 0.1 to 1 µM
CC[C@@]1(c2cccc(-c3cnn4c3CCCC4)c2)C2=C(CC(C)(C)NC2=O)NC2N=NC(C(F)(F)F)=C21 (stereo partly specified) [US20250313563, Compound 948775] | < 0.1 µM | < 0.1 µM and 0.1 to 1 µM
CC[C@]1(c2cccc(C(F)(F)F)c2)C2=CN=NC2NC2=C1C(=O)N(c1ccc(F)cc1)CC2 (stereo partly specified) [US20250313563, Compound 948224] | < 0.1 µM | 0.1 to 1 µM
CC[C@]1(c2cccc(-c3ccnc(C)c3)c2)C2=CN=NC2NC2=C1C(=O)CC(C)(C)[C@H]2F (stereo partly specified) [US20250313563, Compound 946103] | 0.1 to 1 µM | 1 to 5 µM
CC[C@@]1(c2cccc(-c3ccnc(C)c3OC)c2)C2=CN=NC2NC2=C1C(=O)CC(C)(C)C2 (stereo partly specified) [US20250313563, Compound 945997] | < 0.1 µM and 0.1 to 1 µM | < 0.1 µM and 1 to 5 µM
CCC1(c2cccc(-c3cc(C)ncc3F)c2)C2=C(CC(C)(C)NC2=O)NC2N=NC(C(F)(F)F)=C21 (stereo unspecified) [US20250313563, Compound 948762] | < 0.1 µM | < 0.1 µM
CCC1(c2cccc(-c3ccncc3F)c2)C2=C(CC(C)(C)CC2=O)NC2N=NC(C(F)(F)F)=C21 (stereo unspecified) [US20250313563, Compound 945528] | < 0.1 µM | < 0.1 µM and 0.1 to 1 µM
CC[C@]1(c2ccccc2)C2=CN=NC2NC2=C1C(=O)C[C@]1(CCCOC1)C2 (stereo partly specified) [US20250313563, Compound 816878] | 0.1 to 1 µM | 1 to 5 µM
CC[C@@]1(c2cccc(-c3cnn(Cc4cccc(F)c4F)c3)c2)C2=CN=NC2NC2=C1C(=O)NC(C)(C)C2 (stereo partly specified) [US20250313563, Compound 951840] | < 0.1 µM | 0.1 to 1 µM
CC[C@@]1(c2cccc(N(C)c3ccccn3)c2)C2=CN=NC2NC2=C1C(=O)CC(C)(C)C2 (stereo partly specified) [US20250313563, Compound 875568] | < 0.1 µM | < 0.1 µM
CC[C@]1(c2cccc(-c3ccncc3)c2)C2=CN=NC2NC2=C1C(=O)C[C@@H](C)C2 (stereo partly specified) [US20250313563, Compound 874317] | < 0.1 µM | < 0.1 µM
CCC1(c2cccc(-c3cnn(C)c3)c2)C2=CN=NC2NC2=C1C(=O)NC(C)(C)C2 (stereo unspecified) [US20250313563, Compound 943912] | < 0.1 µM | 1 to 5 µM
CC[C@]1(c2cccc(S(=O)(=O)CC3CC3)c2)C2=C(CC(C)(C)NC2=O)NC2N=NC(C(F)(F)F)=C21 (stereo partly specified) [US20250313563, Compound 949175] | < 0.1 µM | < 0.1 µM
CCC1(c2cccc(-c3ccnc(C)c3)c2)C2=C(CC(C)(C)NC2=O)NC2N=NC(C(F)F)=C21 (stereo unspecified) [US20250313563, Compound 949169] | < 0.1 µM and 0.1 to 1 µM | < 0.1 µM and 1 to 5 µM
CC[C@]1(c2cccc(-c3cnn(C)c3)c2)C2=C(CC(C)(C)NC2=O)NC2N=NC(F)=C21 (stereo partly specified) [US20250313563, Compound 949002] | 1 to 5 µM | > 5 µM
CC[C@@]1(c2cccc(-c3cnn(-c4cccnc4)c3)c2)C2=CN=NC2NC2=C1C(=O)NC(C)(C)C2 (stereo partly specified) [US20250313563, Compound 952024] | 0.1 to 1 µM | > 5 µM
CC[C@@]1(c2cccc(-c3cnn(C)c3)c2)C2=CN=NC2NC2=C1C(=O)CC(C)(C)[C@@H]2F (stereo partly specified) [US20250313563, Compound 957511] | < 0.1 µM and 0.1 to 1 µM | 0.1 to 1 µM and > 5 µM
CCC1(c2cccc(-c3ccncc3C)c2)C2=CN=NC2NC2=C1C(=O)NC(C)(C)C2 (stereo unspecified) [US20250313563, Compound 945461] | < 0.1 µM | < 0.1 µM
CC[C@@]1(c2cccc(-c3ccnc(C)c3)c2)C2=C(CC(C)(C)NC2=O)NC2N=NC(C(F)(F)F)=C21 (stereo partly specified) [US20250313563, Compound 948774] | < 0.1 µM | < 0.1 µM
CC[C@]1(c2cccc(-c3ccncc3C)c2)C2=C(CC(C)(C)NC2=O)NC2N=NC(C(F)(F)F)=C21 (stereo partly specified) [US20250313563, Compound 947812] | < 0.1 µM | < 0.1 µM
CC[C@@]1(c2cccc(-c3ccnc4ccncc34)c2)C2=CN=NC2NC2=C1C(=O)NC(C)(C)C2 (stereo partly specified) [US20250313563, Compound 952910] | < 0.1 µM and 0.1 to 1 µM | 0.1 to 1 µM and > 5 µM

Results, then the compound that gave them:

IC50 [1] | IC50 [2] | Structure (SMILES)
1 to 5 µM | 0.1 to 1 µM | Cn1ccc(-c2cccc([C@]3(C)C4=C(CC(C)(C)CC4=O)NC4=C3C(CC(C)(C)C)N=N4)c2)n1 (stereo partly specified) [US20250313563, Compound 126366]
0.1 to 1 µM | 1 to 5 µM | CC(=O)N1CCC2(C1)C1=CN=NC1NC1=C2C(=O)CC(C)(C)C1 (stereo unspecified) [US20250313563, Compound 826763]
< 0.1 µM | < 0.1 µM | CC1(C)CC(=O)C2=C(NC3=C(CN=N3)C23CCCCC3)[C@@H]1F [US20250313563, Compound 951705]
< 0.1 µM | 0.1 to 1 µM | CC1(C)CC(=O)C2=C(NC3=C(CN=N3)[C@]23CC[C@@H](C(F)(F)F)CC3)C1F (stereo partly specified) [US20250313563, Compound 917135]
0.1 to 1 µM | 0.1 to 1 µM | CC1(C)CC(=O)C2=C(C1)NC1=C(CN=N1)C21COC2(CCC2)C1 (stereo unspecified) [US20250313563, Compound 911973]
< 0.1 µM | < 0.1 µM | CN1CC2(C1)C1=C(N=NC1)NC1=C2C(=O)CC(C)(C)C1 [US20250313563, Compound 913264]
< 0.1 µM | < 0.1 µM | CC1(C)CC(=O)C2=C(C1)NC1=C(CN=N1)C21CN(S(=O)(=O)Cc2ccccc2)C1 [US20250313563, Compound 943543]
< 0.1 µM | < 0.1 µM | CCC1(c2cccc(-c3cnn4c3CCCC4)c2)C2=C(CC(C)(C)CC2=O)NC2N=NC(C)=C21 (stereo unspecified) [US20250313563, Compound 884002]
< 0.1 µM and 0.1 to 1 µM | < 0.1 µM and 1 to 5 µM | CC[C@]1(c2cccc(-c3cnc(C)n3C)c2)C2=CN=NC2NC2=C1C(=O)CC(C)(C)C2 (stereo partly specified) [US20250313563, Compound 945613]
< 0.1 µM | < 0.1 µM and 0.1 to 1 µM | CC1(C)CC(=O)C2=C(C1)NC1=C(CN=N1)C21CCN(S(=O)(=O)c2cccc(Cl)c2F)CC1 [US20250313563, Compound 948118]
0.1 to 1 µM | 0.1 to 1 µM | Cc1cnccc1[C@H]1CC[C@]2(CC1)C1=C(N=NC1)NC1=C2C(=O)CC(C)(C)C1 [US20250313563, Compound 949318]
0.1 to 1 µM | 0.1 to 1 µM | CC1(C)CC(=O)C2=C(C1)NC1=C(CN=N1)C21CCS(=O)(=O)CC1 [US20250313563, Compound 896013]
> 1.67 µM | > 5 µM | CC1(C)CC(=O)C2=C(C1)NC1N=NC=C1[C@@]21CCc2c(F)cccc21 (stereo partly specified) [US20250313563, Compound 806632]
> 5 µM | > 5 µM | CC[C@@]1(c2ccc(C)cc2)C2=CN=NC2NC2=C1C(=O)CC(C)(C)C2 (stereo partly specified) [US20250313563, Compound 789458]
1 to 5 µM | > 5 µM | CCC1(c2ccccc2)C2=C(N=NC2)NC2=C1C(=O)CCC2 (stereo unspecified) [US20250313563, Compound 789497]
< 0.1 µM | < 0.1 µM | CCCC(C(C)=O)c1cccc(C2(CC)C3=CN=NC3NC3=C2C(=O)CC(C)(C)C3)c1 (stereo unspecified) [US20250313563, Compound 909205]
0.1 to 1 µM | > 1.67 µM | CC[C@@]1(c2cccc(C(F)(F)F)c2)C2=CN=NC2NC2=C1C(=O)CC1(CCCC1)C2 (stereo partly specified) [US20250313563, Compound 801310]
< 0.1 µM | 0.1 to 1 µM | CC[C@]1(c2cc(N(C)C(C)=O)ccc2F)C2=CN=NC2NC2=C1C(=O)CC(C)(C)C2 (stereo partly specified) [US20250313563, Compound 929450]
0.1 to 1 µM | 1 to 5 µM | CCC1(c2cccc(N(C)C3CC3)c2)C2=CN=NC2NC2=C1C(=O)CC(C)(C)C2 (stereo unspecified) [US20250313563, Compound 945466]
< 0.1 µM | < 0.1 µM | CCC1(c2cccc(-c3c(C)cnn3C)c2)C2=CN=NC2NC2=C1C(=O)CC(C)(C)C2 (stereo unspecified) [US20250313563, Compound 947491]
< 0.1 µM and 1 to 5 µM | 0.1 to 1 µM and > 5 µM | CC[C@@]1(c2cccc(-c3cnc4n3CCCC4)c2)C2=CN=NC2NC2=C1C(=O)CC(C)(C)C2 (stereo partly specified) [US20250313563, Compound 945607]
< 0.1 µM | 0.1 to 1 µM | CC1(C)CC(=O)C2=C(C1)NC1N=NC=C1C21CCN(S(=O)(=O)c2cnc3n2CCC3)CC1 (stereo unspecified) [US20250313563, Compound 947467]
0.1 to 1 µM | 1 to 5 µM | O=C1CC(c2ccccc2)CC2=C1C1(CCOCC1)C1=C(N=NC1)N2 (stereo unspecified) [US20250313563, Compound 893309]
< 0.1 µM | 0.1 to 1 µM | CC1(C)CC(=O)C2=C(C1)NC1=C(CN=N1)[C@]21CCc2c(F)cccc21 [US20250313563, Compound 806633]
< 0.1 µM and 0.1 to 1 µM | < 0.1 µM and 0.1 to 1 µM | CC1CCC(CC(=O)N2CC3(C2)CC2(CO3)C3=C(N=NC3)NC3=C2C(=O)CC(C)(C)C3)C1 (stereo unspecified) [US20250313563, Compound 947269]
